In US20260337184A1, “NOVEL SUBSTITUTED 2-CARBONYL-BENZOTHIOPHENE-6-CARBOXYLIC ACID DERIVATIVES, PROCESSES FOR THEIR PREPARATION AND THERAPEUTIC USES THEREOF” (SANOFI, priority 2022, published 2026):

Target: T1, estrogen receptor (ERα) (Homo sapiens, UniProt P03372)
T1 construct: endogenous in cells; host or cells: MCF7 cells (ATCC)
T1 sequence (P03372 1-595): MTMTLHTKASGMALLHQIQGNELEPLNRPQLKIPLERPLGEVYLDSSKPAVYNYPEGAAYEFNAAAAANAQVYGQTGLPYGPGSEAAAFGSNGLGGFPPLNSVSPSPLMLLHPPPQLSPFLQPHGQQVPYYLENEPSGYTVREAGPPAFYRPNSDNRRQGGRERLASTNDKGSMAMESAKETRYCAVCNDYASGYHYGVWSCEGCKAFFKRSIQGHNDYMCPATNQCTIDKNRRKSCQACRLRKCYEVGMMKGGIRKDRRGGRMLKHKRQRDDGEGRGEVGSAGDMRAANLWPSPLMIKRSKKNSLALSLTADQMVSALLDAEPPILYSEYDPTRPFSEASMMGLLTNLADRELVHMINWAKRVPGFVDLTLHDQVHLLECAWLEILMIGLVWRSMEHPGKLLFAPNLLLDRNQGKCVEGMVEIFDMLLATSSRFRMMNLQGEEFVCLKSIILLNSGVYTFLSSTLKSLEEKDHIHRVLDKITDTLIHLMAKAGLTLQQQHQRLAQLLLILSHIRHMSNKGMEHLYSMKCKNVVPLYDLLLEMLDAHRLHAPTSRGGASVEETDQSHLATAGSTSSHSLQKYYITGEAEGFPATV
Experiment: Estrogen receptor degradation activity (ERα in cell western assay, MCF7 breast cancer cells)
Type: cell-based
Details: for percent ER degradation at 0.3 µM: 4 hours, relative to fulvestrant (0.1 μM) and DMSO; for DC50: concentration which degrades 50% of the estrogen receptor, 4 hours post compound addition, read-out: Degradation IC50
Procedure: Test: Estrogen Receptor Degradation Activity
Said test involves measuring the in vitro degradation activity of the compounds of the Table 1a.
The measurements of the degradation activities were made using a breast cancer cell ERα in cell western assay as described hereunder.
MCF7 cells (ATCC) were seeded in 384 wells microplate (collagen coated) at a concentration of 10000 cells/30 μL per well in red phenol free MEM alpha medium (invitrogen) containing 5% charcoal dextran striped FBS. The following day, 9 points serial 1:5 dilution of each compound was added to the cells in 2.5 μL at final concentrations ranging from 0.3-0.0000018 μM (in table 2), or 0.1 μM for fulvestrant (using as positive control). At 4 hours post compound addition the cells were fixed by adding 25 μL of formalin (final concentration 5% formalin containing 0.1% triton) for 10 minutes at room temperature and then washed twice with PBS. Then, 50 μL of LI-COR blocking buffer containing 0.1% Triton was added to plate for 30 minutes at room temperature. LI-COR blocking buffer was removed and cells were incubated overnight at cold room with 50 μL anti-ER rabbit monoclonal antibody (Thermo scientific MA1-39540) diluted at 1:1000 in LI-COR blocking buffer containing 0.1% tween-20. Wells which were treated with blocking buffer but no antibody were used as background control. Wells were washed twice with PBS (0.1% tween-20) and incubated at 37° C. for 60 minutes in LI-COR (0.1% tween-20) containing goat anti-rabbit antibody Alexa 488 (1:1000) and Syto-64 a DNA dye (2 μM final concentration). Cells were then washed 3 times in PBS and scanned in ACUMEN explorer (TTP-Labtech). Integrated intensities in the green fluorescence and red fluorescence were measured to determine the levels of ERα and DNA respectively.
The degradation activity with respect to estrogen receptors in this test is given by the concentration which degrades 50% of the estrogen receptor (or IC50) in nM.
The % of ERα levels decrease were determined as follows: % inhibition=100*(1−(sample−fulvestrant: DMSO−fulvestrant)).

| Structure (SMILES) | percent ER degradation at 0.3 µM [%] | DC50 [nM] |
| --- | --- | --- |
| Cc1cc(F)cc(C)c1C(=O)c1sc2cc(C(=O)O)ccc2c1Oc1ccc(NC2CN(CCCF)C2)cc1 [Compound 1, 2-(4-fluoro-2,6-dimethylbenzoyl)-3-(4-((1-(3-fluoropropyl)azetidin-3-yl)amino)phenoxy)benzo[b]thiophene-6-carboxylic acid] | 91 | 5 |
| Cc1cc(F)cc(C)c1C(=O)c1sc2cc(C(=O)O)ccc2c1Oc1ccc(OC2CN(CCCF)C2)cc1 [Compound 2, 2-(4-fluoro-2,6-dimethylbenzoyl)-3-(4-((1-(3-fluoropropyl)azetidin-3-yl)oxy)phenoxy)benzo[b]thiophene-6-carboxylic acid] | 92 | 5 |
| Cc1cc(F)cc(C)c1C(=O)c1sc2cc(C(=O)O)ccc2c1Oc1ccc(CC2CN(CCCF)C2)cc1 [Compound 3, 2-(4-fluoro-2,6-dimethylbenzoyl)-3-(4-((1-(3-fluoropropyl)azetidin-3-yl)methyl)phenoxy)benzo[b]thiophene-6-carboxylic acid] | 85 | 3 |
| Cc1cc(F)cc(C)c1C(=O)c1sc2cc(C(=O)O)ccc2c1Oc1ccc(O[C@H]2CCN(CCCF)C2)cc1 [Compound 5, (S)-2-(4-fluoro-2,6-dimethylbenzoyl)-3-(4-((1-(3-fluoropropyl)pyrrolidin-3-yl)oxy)phenoxy)benzo[b]thiophene-6-carboxylic acid] | 91 | 12 |

Results, then the compound that gave them:

| percent ER degradation at 0.3 µM [%] | DC50 [nM] | Structure (SMILES) |
| --- | --- | --- |
| 84 | 3 | Cc1cc(F)cc(C)c1C(=O)c1sc2cc(C(=O)O)ccc2c1Oc1ccc(N[C@H]2CCN(CCCF)C2)cc1 [Compound 6, (S)-2-(4-fluoro-2,6-dimethylbenzoyl)-3-(4-((1-(3-fluoropropyl)pyrrolidin-3-yl)amino)phenoxy)benzo[b]thiophene-6-carboxylic acid] |
| 98 | 0.3 | Cc1cc(F)cc(C)c1C(=O)c1sc2cc(C(=O)O)ccc2c1Oc1ccc(C=C2CN(CCCF)C2)cc1 [Compound 4, 2-(4-fluoro-2,6-dimethylbenzoyl)-3-(4-((1-(3-fluoropropyl)azetidin-3-ylidene)methyl)phenoxy)benzo[b]thiophene-6-carboxylic acid] |
